Reference: PubChem BioAssay AID1259408 (Genetic Toxicology Data Bank (GENE-TOX), 2018)
Calls of active or inactive are those of the source. No rule for the calls is given here.

Test system: GENE-TOX genotoxicity assays, various organisms and cells
Experiment: GENE-TOX mutagenicity studies
Details: for call: Assay Type: In vivo carcinogenicity studies
[1] = Species/Cell Type: Drosophila melanogaster, Assay Type: Sex-linked recessive lethal gene mutation, Assay Code: SRL+, Evaluation Type: Evaluation A (Pre-1980)
[2] = Species/Cell Type: Escherichia coli polA (W3119 vs P3478), Assay Type: Rec-assay, DNA effects (bacterial DNA repair), Assay Code: RE1+, Evaluation Type: Evaluation A (Pre-1980)
[3] = Species/Cell Type: Mammalian polychromatic erythrocytes, Assay Type: Micronucleus test, chromosome aberrations, Assay Code: MNTT, Evaluation Type: Evaluation A (Pre-1980)
[4] = Species/Cell Type: Mouse, Sex: Male, Assay Type: Sperm morphology, Assay Code: SPI-, Evaluation Type: Evaluation A (Pre-1980)
[5] = Species/Cell Type: Nonhuman, Assay Code: CCG+, Evaluation Type: Evaluation A (Pre-1980)
[6] = Species/Cell Type: Saccharomyces cerevisiae, Assay Type: Mitotic recombination or gene conversion, Assay Code: YEC+, Evaluation Type: Evaluation A (Pre-1980)
[7] = Species/Cell Type: Saccharomyces cerevisiae, Assay Type: Mitotic recombination or gene conversion, Assay Code: YEH+, Evaluation Type: Evaluation A (Pre-1980)
[8] = Species/Cell Type: Saccharomyces cerevisiae, Assay Type: Reverse gene mutation, Assay Code: YER+, Evaluation Type: Evaluation A (Pre-1980)
[9] = Species/Cell Type: Salmonella typhimurium (one or more of the five standard strains: TA98, TA100, TA1535, TA1537, and TA1538), Assay Type: Histidine reverse gene mutation, Ames assay, Assay Code: SAL+, Evaluation Type: Evaluation A (Pre-1980)
[10] = Species/Cell Type: Nonhuman, Assay Code: CCGT, Evaluation Type: Evaluation A (Pre-1980)
[11] = Species/Cell Type: Nonhuman, Assay Type: Sister-chromatid exchange (SCE) in vitro, Assay Code: SC2+, Evaluation Type: Evaluation B (Post-1980)
[12] = Species/Cell Type: Salmonella typhimurium (one or more of the five standard strains: TA98, TA100, TA1535, TA1537, and TA1538), Assay Type: Histidine reverse gene mutation, Ames assay, Assay Code: SALT, Evaluation Type: Evaluation A (Pre-1980)
[13] = Species/Cell Type: Salmonella typhimurium (one or more of the five standard strains: TA98, TA100, TA1535, TA1537, and TA1538), Assay Type: Histidine reverse gene mutation, Ames assay, Assay Code: SAL+*, Activation: With metabolic activation, Evaluation Type: Evaluation A (Pre-1980)
[14] = Species/Cell Type: Nonhuman, Assay Code: CCG+L, Evaluation Type: Evaluation A (Pre-1980)
[15] = Species/Cell Type: Chinese hamster lung (V79) cells, Assay Type: Forward gene mutation at the HPRT or ouabain locus, Assay Code: V79-*, Activation: With metabolic activation, Evaluation Type: Evaluation A (Pre-1980)
[16] = Species/Cell Type: Drosophila melanogaster, Assay Type: Sex-linked recessive lethal gene mutation, Assay Code: SRLT, Evaluation Type: Evaluation A (Pre-1980)
[17] = Species/Cell Type: Drosophila melanogaster, Assay Type: Aneuploidy, partial sex chromosome loss, chromosome aberrations, Assay Code: DAPT, Evaluation Type: Evaluation A (Pre-1980)
[18] = Species/Cell Type: Drosophila melanogaster, Assay Type: Aneuploidy, whole sex chromosome loss, chromosome aberrations, Assay Code: DACT, Evaluation Type: Evaluation A (Pre-1980)

Structure (SMILES): O=C1CCO1
- mutagenic call (Species/Cell Type: Allium cepa, Assay Type: Chromosome aberrations, Assay Code: ALC+, Evaluation Type: Evaluation A (Pre-1980)): active; positive
- mutagenic call (Species/Cell Type: Chinese hamster ovary (CHO) cells, Assay Type: Forward gene mutation at the HPRT locus, Assay Code: CHO+, Evaluation Type: Evaluation B (Post-1980)): active; positive
- mutagenic call [1]: active; positive
- mutagenic call (Species/Cell Type: Drosophila melanogaster, Sex: Male, Assay Type: Heritable translocation test, chromosome aberrations, Assay Code: DHT+, Evaluation Type: Evaluation A (Pre-1980)): active; positive
- mutagenic call [2]: active; positive
- mutagenic call (Species/Cell Type: Human diploid fibroblasts, Assay Type: Unscheduled DNA synthesis (UDS) in vitro, DNA effects, Assay Code: UDH+, Evaluation Type: Evaluation A (Pre-1980)): active; positive
- mutagenic call [3]: no conclusion
- mutagenic call (Species/Cell Type: Mouse lymphoma (L5178Y) cells, Assay Type: Forward gene mutation at the thymidine kinase (TK) locus, chromosome aberrations, Assay Code: L51+, Evaluation Type: Evaluation A (Pre-1980)): active; positive
- mutagenic call [4]: inactive; negative
- mutagenic call (Species/Cell Type: Neurospora crassa, Assay Type: Forward gene mutation, Assay Code: NEF+, Evaluation Type: Evaluation A (Pre-1980)): active; positive
- mutagenic call (Species/Cell Type: Neurospora crassa, Assay Type: Reverse gene mutation, Assay Code: NER+, Evaluation Type: Evaluation A (Pre-1980)): active; positive
- call [5]: active; positive
- mutagenic call (Species/Cell Type: Nonhuman, Assay Type: Sister-chromatid exchange (SCE) in vitro, Assay Code: SC2+D, Dose Response: With dose response, Evaluation Type: Evaluation A (Pre-1980)): active; positive
- mutagenic call [6]: active; positive
- mutagenic call [7]: active; positive
- mutagenic call [8]: active; positive
- mutagenic call [9]: active; positive
- mutagenic call (Species/Cell Type: Salmonella typhimurium, Assay Type: Forward and reverse gene mutation, host-mediated assay, Assay Code: HMA+, Evaluation Type: Evaluation A (Pre-1980)): active; positive
- mutagenic call (Species/Cell Type: Syrian hamster embryo (SA7/SHE) cells, Assay Type: Cell transformation, viral enhanced, Assay Code: CT7+, Evaluation Type: Evaluation A (Pre-1980)): active; positive
- mutagenic call (Species/Cell Type: Syrian hamster embryo (SHE) cells, Assay Type: Cell transformation, focus assay, Assay Code: CTF+, Evaluation Type: Evaluation A (Pre-1980)): active; positive
- mutagenic call (Species/Cell Type: Vicia faba, Assay Type: Chromosome aberrations, Assay Code: VIC+, Evaluation Type: Evaluation A (Pre-1980)): active; positive

Structure (SMILES): Oc1cc2cc3ccccc3c3ccc4cccc1c4c23
- mutagenic call (Species/Cell Type: Chinese hamster lung (V79) cells, Assay Type: Forward gene mutation at the HPRT or ouabain locus, Assay Code: V79-, Evaluation Type: Evaluation A (Pre-1980)): inactive; negative
- call [10]: no conclusion
- mutagenic call [11]: active; positive
- mutagenic call [12]: no conclusion

Structure (SMILES): O=c1cc(CO)occ1O
- mutagenic call [13]: active; positive

Structure (SMILES): Cc1cc(O)c2c(c1O)C(=O)C13C(=C2O)C(=O)C2C(O)C1C1C(O)C3C(=O)C3=C(O)c4c(O)cc(C)c(O)c4C(=O)C321 (configuration not stated)
- mutagenic call (Species/Cell Type: Bacillus subtilis (H17 vs M45), Assay Type: Rec-assay, spot test, DNA effects (bacterial DNA repair), Assay Code: REW+, Evaluation Type: Evaluation A (Pre-1980)): active; positive
- mutagenic call (Species/Cell Type: Human lymphocytes or leukocytes, Assay Type: Chromosome aberrations in vitro, Assay Code: CY7+, Evaluation Type: Evaluation A (Pre-1980)): active; positive
- call [14]: active; positive

Structure (SMILES): Cc1c2c(c(CO)c3c1ccc1ccccc13)C=C[C@H](O)[C@H]2O
- mutagenic call [15]: inactive; negative

Structure (SMILES): CN(N=O)C(=O)Oc1ccccc1Cl
- mutagenic call (Species/Cell Type: Bacillus subtilis (H17 vs M45T), Assay Type: Rec-assay, spot test, DNA effects (bacterial DNA repair), Assay Code: REX+, Evaluation Type: Evaluation A (Pre-1980)): active; positive
- mutagenic call (Species/Cell Type: Escherichia coli WP2, Assay Type: Tryptophan reverse gene mutation, Assay Code: WP2+, Evaluation Type: Evaluation A (Pre-1980)): active; positive

Structure (SMILES): Cc1cccc2ccc3c4ccccc4ccc3c12
- mutagenic call [13]: active; positive

Structure (SMILES): ClC(Cl)C(Cl)Cl
- mutagenic call [2]: active; positive
- call [14]: active; positive
- mutagenic call [6]: active; positive
- mutagenic call [7]: active; positive
- mutagenic call [8]: active; positive

Structure (SMILES): O[C@H]1c2ccc3cc4ccccc4cc3c2[C@@H]2OC2[C@@H]1O (some centres not stated)
- mutagenic call (Species/Cell Type: Chinese hamster lung (V79) cells, Assay Type: Forward gene mutation at the HPRT or ouabain locus, Assay Code: V79+, Evaluation Type: Evaluation A (Pre-1980)): active; positive

Structure (SMILES): Oc1c(Cl)cccc1Cl
- mutagenic call (Species/Cell Type: Allium cepa, Assay Type: Chromosome aberrations, Assay Code: ALC-, Evaluation Type: Evaluation A (Pre-1980)): inactive; negative

Structure (SMILES): Nc1ccnc(=O)[nH]1
- mutagenic call [16]: no conclusion

Structure (SMILES): CCN(CCCO)N=O
- mutagenic call [13]: active; positive

Structure (SMILES): O=C1c2c(O)ccc(O)c2C(=O)c2c(NCCNCCO)ccc(NCCNCCO)c21
- mutagenic call [11]: active; positive

Structure (SMILES): O=C1OC(=O)c2ccccc21
- call (Species/Cell Type: Nonhuman, Assay Code: CCG-, Evaluation Type: Evaluation A (Pre-1980)): inactive; negative

Structure (SMILES): O=NN(CCCl)C(=O)NC(NC(=O)N(CCCl)N=O)(c1ccccc1)c1ccccc1
- mutagenic call [1]: active; positive

Structure (SMILES): O=NN1CCC(O)CC1
- mutagenic call [17]: no conclusion
- mutagenic call [18]: no conclusion
- mutagenic call [16]: no conclusion
- mutagenic call [13]: active; positive

Structure (SMILES): CSc1ccc([C@H](O)[C@H](CO)NC(=O)C(Cl)Cl)cc1
- mutagenic call [12]: no conclusion

Structure (SMILES): CCCCNC(=O)NS(=O)(=O)c1ccc(C)cc1
- mutagenic call (Species/Cell Type: Mammalian polychromatic erythrocytes, Assay Type: Micronucleus test, chromosome aberrations, Assay Code: MNT+, Evaluation Type: Evaluation A (Pre-1980)): active; positive
- mutagenic call (Species/Cell Type: Nonhuman, Assay Type: Sister-chromatid exchange (SCE) in vivo, Assay Code: SC3+D, Dose Response: With dose response, Evaluation Type: Evaluation B (Post-1980)): active; positive

Structure (SMILES): CC(=O)[O-].CC(=O)[O-].[Hg+2]
- mutagenic call (Species/Cell Type: Mammalian oocytes or early embryo, Assay Type: Chromosome aberrations in vivo, Assay Code: CYO-, Evaluation Type: Evaluation A (Pre-1980)): inactive; negative
- mutagenic call (Species/Cell Type: Nonhuman, Assay Type: Sister-chromatid exchange (SCE) in vitro, Assay Code: SC2-, Evaluation Type: Evaluation B (Post-1980)): inactive; negative

Structure (SMILES): O=NN1CC=CCC1
- mutagenic call [17]: no conclusion
- mutagenic call [18]: no conclusion
- mutagenic call [1]: active; positive
- mutagenic call [9]: active; positive

Structure (SMILES): CN(C)c1ccc(N=Nc2ccc3ncccc3c2)cc1
- mutagenic call (Species/Cell Type: Fischer rat embryo (RLV/1706) cells, Assay Type: Cell transformation, viral enhanced, Assay Code: CTR+, Evaluation Type: Evaluation A (Pre-1980)): active; positive
- mutagenic call (Species/Cell Type: Mouse embryo (AKR/ME) cells, Assay Type: Cell transformation, Assay Code: CTK+, Evaluation Type: Evaluation A (Pre-1980)): active; positive

Structure (SMILES): CC/C(=C(/CC)c1ccc(OP(=O)(O)O)cc1)c1ccc(OP(=O)(O)O)cc1
- mutagenic call [3]: no conclusion
- mutagenic call (Species/Cell Type: Neurospora crassa, Assay Type: Aneuploidy, chromosome aberrations, Assay Code: NEN-, Evaluation Type: Evaluation A (Pre-1980)): inactive; negative
- mutagenic call (Species/Cell Type: Nonhuman, Assay Type: Sister-chromatid exchange (SCE) in vivo, Assay Code: SC3-, Evaluation Type: Evaluation B (Post-1980)): inactive; negative
- mutagenic call (Species/Cell Type: Rodents, Sex: Male, Assay Type: Dominant lethal test, Assay Code: DLT+, Evaluation Type: Evaluation A (Pre-1980)): active; positive

Structure (SMILES): Oc1c(Cl)cc(Cl)c(Cl)c1Cc1c(O)c(Cl)cc(Cl)c1Cl
- mutagenic call (Species/Cell Type: Mammalian polychromatic erythrocytes, Assay Type: Micronucleus test, chromosome aberrations, Assay Code: MNTT, Evaluation Type: Evaluation B (Post-1980)): no conclusion

Structure (SMILES): Cc1c2ccccc2c(C)c2c1ccc1cc(O)ccc12
- mutagenic call [15]: inactive; negative
- call [10]: no conclusion

Structure (SMILES): C1=CC[C@@H](c2cccnc2)NC1
- mutagenic call (Species/Cell Type: Nonhuman, Assay Type: Sister-chromatid exchange (SCE) in vitro, Assay Code: SC2+D, Dose Response: With dose response, Evaluation Type: Evaluation B (Post-1980)): active; positive

Structure (SMILES): O=[N+]([O-])c1ccc(/C=C/c2cnc(N(CO)CO)nn2)o1
- call [5]: active; positive

Structure (SMILES): CC1CS(=O)(=O)CCN1/N=C/c1ccc([N+](=O)[O-])o1 (configuration not stated)
- mutagenic call (Species/Cell Type: Mammalian polychromatic erythrocytes, Assay Type: Micronucleus test, chromosome aberrations, Assay Code: MNT+, Evaluation Type: Evaluation B (Post-1980)): active; positive

Structure (SMILES): [CH3][Hg][O]C(C)=O
- mutagenic call [3]: no conclusion
- mutagenic call [4]: inactive; negative
